# Earlier results in patent publication US20200254013A1, “COMPOSITIONS COMPRISING ALPHA-POLYGLUTAMIC ACID-ZINC FOR TREATING CANCER” (XYLONIX IP HOLDINGS PTE. LTD., priority 2017, published 2020).
# Experiments:
# [1] = system: LNCaP, PC3, DU145 prostate cancer cell lines; details: 1-10 μM
# [2] = dietary administration 240 ppm, after 9-14 days
# [3] = system: murine thymocytes, murine splenic lymphocytes, human Ramos B, and human Jurkat T cells; details: nanomolar concentrations
# [4] = system: folate receptor (FR), FR-α and FR-β
affinity for FR-α versus FR-β [4],Molecule,ATP-depletion and necrosis in prostate cancer cell lines [1],neurological toxicity in rats [2],apoptosis in leukocyte-originating cells [3]
–,zinc pyrithione,"elicited ATP-depletion and, eventually, ERK and PKC-dependent necrosis",acute neurological toxicity,induced zinc-specific apoptosis
higher affinity for FR-α over FR-β,"CN(CC1CNc2nc(N)[nH]c(=O)c2N1C)c1ccc(C(=O)N[C@@H](CCC(=O)O)C(=O)O)cc1 (stereo partly shown) [DMTHF, N^5, N^10-dimethyl tetrahydrofolate]",–,–,–
